Reference: patent US10173968B2, “Bishydrazone-based antifungal agents” (University of Kentucky Research Foundation, priority 2016, dated 2019)
Like-named read-outs stand apart in the source and are kept apart here.

Tests used:
C. albicans ATCC 2310 = experiment: Antifungal MIC, CLSI M27-A3 microbroth dilution; assay type: cell-based, Candida albicans; settings: Candida albicans, ATCC2310, C. albicans ATCC 2310, susceptible to FLC, ITC, and VOR, read-out: MIC
Method: (§1) In vitro MIC testing was performed according to the CLSI M27-A3 standard microbroth dilution methodology for the susceptibility testing of yeasts with minor modifications.

C. albicans ATCC 90819 = experiment: Antifungal MIC, CLSI M27-A3 microbroth dilution; assay type: cell-based, Candida albicans; settings: Candida albicans, ATCC90819, C. albicans ATCC 90819, resistant to FLC, ITC, and VOR, read-out: MIC
Method: as §1

C. albicans ATCC 10231 = experiment: Antifungal MIC, CLSI M27-A3 microbroth dilution; assay type: cell-based, Candida albicans; settings: Candida albicans, ATCC10231, C. albicans ATCC 10231, resistant to FLC, ITC, and VOR, read-out: MIC
Method: as §1

C. albicans ATCC 64124 = experiment: Antifungal MIC, CLSI M27-A3 microbroth dilution; assay type: cell-based, Candida albicans; settings: Candida albicans, ATCC64124, C. albicans ATCC 64124, resistant to FLC, ITC, and VOR, read-out: MIC
Method: as §1

C. albicans ATCC 1003 = experiment: Antifungal MIC, CLSI M27-A3 microbroth dilution; assay type: cell-based, Candida albicans; settings: Candida albicans, ATCC1003, read-out: MIC
Method: as §1

C. albicans ATCC 2876 = experiment: Antifungal MIC, CLSI M27-A3 microbroth dilution; assay type: cell-based, Candida albicans; settings: Candida albicans, ATCC2876, C. albicans ATCC 2876, susceptible to FLC, ITC, and VOR, read-out: MIC
Method: as §1

C. albicans ATCC 1237 = experiment: Antifungal MIC, CLSI M27-A3 microbroth dilution; assay type: cell-based, Candida albicans; settings: Candida albicans, ATCC1237, C. albicans ATCC 1237, resistant to FLC, ITC, and VOR, read-out: MIC
Method: as §1

[1] = Mammalian cell cytotoxicity, resazurin; assay type: cell-based; settings: human
Method: Another important aspect to consider during the development of antimicrobial agents is their potential toxicity towards mammalian cells. Having established the potent antimicrobial activities of the bis(N-amidino)hydrazones and N-amidino-N′-aryl-bishydrazones against bacteria and fungi, the toxicity profile of these compounds was determined against two mammalian cell lines (A549 and BEAS-2B; FIGS. 4A-B). […]. Cytotoxicity assays were performed as previously described. The human lung carcinoma epithelial cells A549 and the normal human bronchial epithelial cells BEAS-2B were grown in F12-K and DMEM medium containing 10% fetal bovine serum (FBS) and 1% antibiotics, respectively. The confluent cells were trypsinized with 0.05%-trypsin-0.53 mM EDTA, centrifuged (1,200 rpm) and resuspended in fresh medium (F12-K or DMEM). The cells were seeded into 96-well microtiter plates at a density of 3,000 cells/well and were grown overnight. […] Triton X-100® (0.5%, v/v) gave complete loss of cell viability and was used as the positive control. The percent cell survival was calculated as: (test value/control value)×100, where control value represents cells+resazurin−drug, and test value represents cells+resazurin+drug.

[2] = tested on: C. albicans strains (panel of seven); experiment: Antifungal MIC, summary over the panel; assay type: cell-based, Candida albicans; settings: for antifungal activity in words: against all fungal strains tested
How it was run: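 Compounds were serially diluted in broth following the CLSI M27-A3 yeast protocol, modified in minor ways. Wells were then inspected visually. The lowest concentration showing no growth relative to control defined the MIC.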

VRE = experiment: Antibacterial MIC, double-dilution method; assay type: cell-based; settings: Enterococcus, strain D, Gram-positive, read-out: MIC
How it was run: (§2)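 Compounds were first screened at 500 μM each, then MICs were read by serial twofold dilution of the compound against the bacterial strain.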

P. aeruginosa ATCC 27853 = experiment: Antibacterial MIC, double-dilution method; assay type: cell-based; settings: Pseudomonas aeruginosa, ATCC27853, strain I, Gram-negative, read-out: MIC
How it was run: as §2

M. smegmatis MC2-155 = experiment: Antibacterial MIC, double-dilution method; assay type: cell-based; settings: Mycolicibacterium smegmatis, MC2155, strain K, mycobacterial, read-out: MIC
How it was run: as §2

[3] = tested on: L. monocytogenes ATCC 19115; experiment: Antibacterial MIC, double-dilution method; assay type: cell-based; settings: Listeria monocytogenes, ATCC19115, strain B, Gram-positive, read-out: MIC
How it was run: as §2

E. coli MC1061 = experiment: Antibacterial MIC, double-dilution method; assay type: cell-based; settings: Escherichia coli, strain G, Gram-negative, read-out: MIC
How it was run: as §2

S. enterica ATCC 14028 = experiment: Antibacterial MIC, double-dilution method; assay type: cell-based; settings: Salmonella enterica, ATCC14028, strain J, Gram-negative, read-out: MIC
How it was run: as §2

A. baumannii ATCC 19606 = experiment: Antibacterial MIC, double-dilution method; assay type: cell-based; settings: Acinetobacter baumannii, ATCC19606, strain E, Gram-negative, read-out: MIC
How it was run: as §2

B. subtilis 168 = experiment: Antibacterial MIC, double-dilution method; assay type: cell-based; settings: Bacillus subtilis, strain A, Gram-positive
How it was run: as §2

E. cloacae ATCC 13047 = experiment: Antibacterial MIC, double-dilution method; assay type: cell-based; settings: Enterobacter cloacae, ATCC13047, strain F, Gram-negative, read-out: MIC
How it was run: as §2

K. pneumoniae ATCC 27736 = experiment: Antibacterial MIC, double-dilution method; assay type: cell-based; settings: Klebsiella pneumoniae, ATCC27736, strain H, Gram-negative, read-out: MIC
How it was run: as §2

[4] = C. albicans ATCC 1003, converted from μg/mL
[5] = A549 lung carcinoma epithelial cells, A549, 24 h
[6] = BEAS-2B normal bronchial epithelial cells

SMILES	MIC (C. albicans ATCC 2310; converted from μg/mL)	MIC (C. albicans ATCC 90819; converted from μg/mL)	MIC (C. albicans ATCC 10231; converted from μg/mL)	MIC (C. albicans ATCC 64124; converted from μg/mL)	MIC (C. albicans ATCC 64124)	MIC (C. albicans ATCC 1003; [4])	MIC (C. albicans ATCC 2876; converted from μg/mL)	MIC (C. albicans ATCC 1237; converted from μg/mL)	MIC (C. albicans ATCC 1237)	MIC (VRE; converted from μM)	MIC (P. aeruginosa ATCC 27853; converted from μM)	MIC (P. aeruginosa ATCC 27853; range 0.5 to 500 μM)	MIC (M. smegmatis MC2-155; converted from μM)	MIC (M. smegmatis MC2-155; range 0.5 to 500 μM)	MIC ([3]; converted from μM)	MIC ([3]; range 0.5 to 500 μM)	MIC (E. coli MC1061; converted from μM)	MIC (E. coli MC1061; range 0.5 to 500 μM)	MIC (S. enterica ATCC 14028; converted from μM)	MIC (S. enterica ATCC 14028; range 0.5 to 500 μM)	other results
Cl.N=C(N)N/N=C/c1ccc(-c2ccc(/C=N/Nc3ccc(Cl)cc3)cc2)cc1 [Compound 7Ad, (E)-2-((4′-((E)-(2-(4-Chlorophenyl)hydrazono)methyl)-[1,1′-biphenyl]-4-yl)methylene)hydrazine-1-carboximidamide monohydrochloride]	9.1 µM	18.3 µM	18.3 µM	36.5 µM	15.6 µg/mL	9.1 µM	18.3 µM	36.5 µM	15.6 µg/mL	1.7 µg/mL	> 214 µg/mL	> 500 µM	1.7 µg/mL	3.9 µM	1.7 µg/mL	3.9 µM	> 214 µg/mL	> 500 µM	> 214 µg/mL	> 500 µM	MIC (C. albicans ATCC 2310): 3.9 µg/mL; MIC (C. albicans ATCC 90819): 7.8 µg/mL; MIC (C. albicans ATCC 10231): 7.8 µg/mL; MIC (C. albicans ATCC 1003): 3.9 µg/mL; MIC (C. albicans ATCC 2876): 7.8 µg/mL; IC50 at 24 h [1, 5]: 7.8 to 15.6 µg/mL; IC50 at 24 h [1, 6]: 7.8 to 15.6 µg/mL; MIC ([2]; Candida albicans, all, most or majority of the fungal strains, read-out: MIC, span over C. albicans strains): 7.8 to 15.6 µg/mL; MIC (VRE; range 0.5 to 500 μM): 3.9 µM; MIC (A. baumannii ATCC 19606; converted from μM): > 214 µg/mL; MIC (A. baumannii ATCC 19606; range 0.5 to 500 μM): > 500 µM; MIC (B. subtilis 168; converted from μM): > 214 µg/mL; MIC (B. subtilis 168; range 0.5 to 500 μM): > 500 µM; MIC (E. cloacae ATCC 13047; converted from μM): > 214 µg/mL; MIC (E. cloacae ATCC 13047; range 0.5 to 500 μM): > 500 µM; MIC (K. pneumoniae ATCC 27736; converted from μM): > 214 µg/mL; MIC (K. pneumoniae ATCC 27736; range 0.5 to 500 μM): > 500 µM
Cl.N=C(N)N/N=C/c1ccc(-c2ccc(C=NNc3ccccc3Cl)cc2)cc1 (mixture of isomers) [Compound 7Aa, E)-2-((4′-((E and Z)-(2-(2-Chlorophenyl)hydrazono)methyl)-[1,1′-biphenyl]-4-yl)methylene)hydrazine-1-carboximidamide monohydrochloride]	4.6 µM	4.6 µM	4.6 µM	9.2 µM	3.9 µg/mL	4.6 µM	4.6 µM	9.2 µM	3.9 µg/mL	0.9 µg/mL	> 215 µg/mL	> 500 µM	1.7 µg/mL	3.9 µM	0.4 to 0.9 µg/mL	1 to 2 µM	> 215 µg/mL	> 500 µM	> 215 µg/mL	> 500 µM	antifungal activity in words [2]: excellent antifungal activities; MIC (A. baumannii ATCC 19606; converted from μM): > 215 µg/mL; MIC (A. baumannii ATCC 19606; range 0.5 to 500 μM): > 500 µM; MIC (B. subtilis 168; converted from μM): > 215 µg/mL; MIC (B. subtilis 168; range 0.5 to 500 μM): > 500 µM; MIC (E. cloacae ATCC 13047; converted from μM): > 215 µg/mL; MIC (E. cloacae ATCC 13047; range 0.5 to 500 μM): > 500 µM; MIC (K. pneumoniae ATCC 27736; converted from μM): > 215 µg/mL; MIC (K. pneumoniae ATCC 27736; range 0.5 to 500 μM): > 500 µM
Cl.N=C(N)N/N=C/c1ccc(-c2ccc(/C=N/Nc3ccc(F)cc3F)cc2)cc1 [Compound 7Af, (E)-2-((4′-((E)-(2-(2,4-Difluorophenyl)hydrazono)methyl)-[1,1′-biphenyl]-4-yl)methylene) hydrazine-1-carboximidamide, monohydrochloride]	9.1 µM	18.2 µM	2.3 µM	9.1 µM	3.9 µg/mL	4.5 µM	9.1 µM	9.1 µM	3.9 µg/mL	1.7 µg/mL	> 214 µg/mL	> 500 µM	0.9 to 1.7 µg/mL	2 to 3.9 µM	0.9 to 1.7 µg/mL	2 to 3.9 µM	> 214 µg/mL	> 500 µM	> 214 µg/mL	> 500 µM	MIC (C. albicans ATCC 2310): 3.9 µg/mL; MIC (C. albicans ATCC 90819): 7.8 µg/mL; MIC (C. albicans ATCC 10231): 1 µg/mL; MIC (C. albicans ATCC 1003): 2 µg/mL; MIC (C. albicans ATCC 2876): 3.9 µg/mL; IC50 at 24 h [1, 5]: 7.8 to 15.6 µg/mL; IC50 at 24 h [1, 6]: 7.8 to 15.6 µg/mL; antifungal activity in words [2]: excellent antifungal activities; MIC (VRE; range 0.5 to 500 μM): 3.9 µM; MIC (A. baumannii ATCC 19606; converted from μM): > 214 µg/mL; MIC (A. baumannii ATCC 19606; range 0.5 to 500 μM): > 500 µM; MIC (B. subtilis 168; converted from μM): > 214 µg/mL; MIC (B. subtilis 168; range 0.5 to 500 μM): > 500 µM; MIC (E. cloacae ATCC 13047; converted from μM): > 214 µg/mL; MIC (E. cloacae ATCC 13047; range 0.5 to 500 μM): > 500 µM; MIC (K. pneumoniae ATCC 27736; converted from μM): > 214 µg/mL; MIC (K. pneumoniae ATCC 27736; range 0.5 to 500 μM): > 500 µM
Cl.Cl.N=C(N)N/N=C/c1ccc(-c2cccc(/C=N/NC(=N)N)c2)cc1 [Compound 3B, (2E,2′E)-2,2′-([1,1′-Biphenyl]-3,4′-diylbis(methanylylidene))bis(hydrazine-1-carboximidamide) dihydrochloride]	9.9 µM	9.9 µM	9.9 µM	9.9 µM	3.9 µg/mL	9.9 µM	9.9 µM	9.9 µM	3.9 µg/mL	1.5 µg/mL	> 198 µg/mL	> 500 µM	0.4 µg/mL	1 µM	0.4 µg/mL	1 µM	> 198 µg/mL	> 500 µM	> 198 µg/mL	> 500 µM	MIC (C. albicans ATCC 2310): 3.9 µg/mL; MIC (C. albicans ATCC 90819): 3.9 µg/mL; MIC (C. albicans ATCC 10231): 3.9 µg/mL; MIC (C. albicans ATCC 1003): 3.9 µg/mL; MIC (C. albicans ATCC 2876): 3.9 µg/mL; IC50 at 24 h [1, 5]: 7.8 to 15.6 µg/mL; IC50 at 24 h [1, 6]: 7.8 to 15.6 µg/mL; antifungal activity in words [2]: excellent antifungal activities; MIC (VRE; range 0.5 to 500 μM): 3.9 µM; MIC (A. baumannii ATCC 19606; converted from μM): > 198 µg/mL; MIC (A. baumannii ATCC 19606; range 0.5 to 500 μM): > 500 µM; MIC (B. subtilis 168; converted from μM): > 198 µg/mL; MIC (B. subtilis 168; range 0.5 to 500 μM): > 500 µM; MIC (E. cloacae ATCC 13047; converted from μM): > 198 µg/mL; MIC (E. cloacae ATCC 13047; range 0.5 to 500 μM): > 500 µM; MIC (K. pneumoniae ATCC 27736; converted from μM): > 198 µg/mL; MIC (K. pneumoniae ATCC 27736; range 0.5 to 500 μM): > 500 µM
